In brackets after ≈: the same amount, converted by molar mass.
Legend:
Experiment in all cases: Minimum inhibitory concentration (MIC), microtiter broth incubation
Assay type in all cases: cell-based
Details in all cases: 0.5x trypticase soy broth, 37° C., 18-24 hours; lowest concentration with no growth
E. coli = test system: E. coli
Experimental: (§1) Aminosterol compounds (1)-(11) were assayed in vitro against several microbial organisms to evaluate their spectrum of activity. Minimum inhibitory concentrations (MIC) for the bacteria and yeast were determined by incubating 0.9-1.1e5 colony-forming units per milliliter of log-phase microbes in 0.5×trypticase soy broth with increasing concentrations of sample in ninety-six well microtiter plates (commercially available from Corning of Corning, N.Y.) at 37° C. for eighteen to twenty-four hours. The minimum inhibitory concentration (MIC) is the lowest concentration of sample at which no growth was observed. Control incubation in the absence of bacteria served as a baseline value. Initial sample concentrations were two milligrams per milliliter in 250 mM sodium acetate, pH 6.6.

P. aeruginosa = test system: P. aeruginosa
Experimental: as §1

S. aureus = test system: S. aureus
Experimental: as §1

C. albicans = test system: C. albicans
Experimental: as §1

Structure (SMILES)	MIC E. coli (E. coli) [µg/mL]	MIC P. aeruginosa (P. aeruginosa) [µg/mL]	MIC S. aureus (S. aureus) [µg/mL]	MIC C. albicans (C. albicans) [µg/mL]
CC(CO)C(=O)CCC(C)C1CCC2C3C(O)CC4CC(NCCCNCCCCN)CCC4(C)C3CCC12C (stereo not drawn) [Aminosterol (6)]	63 (≈ 112 µM)	>250	8 (≈ 14.2 µM)	
CC(C)C(CCC(C)C1CCC2C3CCC4CC(NCCCNCCCCN)CCC4(C)C3CCC12C)OS(=O)(=O)O (stereo not drawn) [Aminosterol (11)]	125 (≈ 204 µM)	250 (≈ 409 µM)	16 (≈ 26.1 µM)	
CC(CO)C(CCC(C)C1CCC2C3C(O)CC4CC(NCCCNCCCCN)CCC4(C)C3CCC12C)OS(=O)(=O)O (stereo not drawn) [Aminosterol (3)]	>250	>250	250 (≈ 388 µM)	
CC(CSCC(N)C(=O)O)C(=O)CCC(C)C1CCC2C3C(O)CC4CC(NCCCNCCCCN)CCC4(C)C3CCC12C (stereo not drawn) [Aminosterol (1)]	256 (≈ 385 µM)	256 (≈ 385 µM)	8 to 16	128 (≈ 192 µM)
CC(CO)C(O)CCC(C)C1CCC2C3C(O)CC4CC(NCCCNCCCCN)CCC4(C)C3CCC12C (stereo not drawn) [Aminosterol (5)]	125 (≈ 222 µM)	250 (≈ 443 µM)	63 (≈ 112 µM)	
CC(C)C(CCC(C)C1CCC2C3C(=O)CC4CC(NCCCNCCCCN)CCC4(C)C3CCC12C)OS(=O)(=O)O (stereo not drawn) [Aminosterol (10)]	8 (≈ 12.8 µM)	31 (≈ 49.5 µM)	2 (≈ 3.2 µM)	
CC(CCCC(C)(C)O)C1CCC2C3C(O)CC4CC(NCCCNCCCCN)CCC4(C)C3CCC12C (stereo not drawn) [Aminosterol (8)]	8 (≈ 14.6 µM)	32 (≈ 58.4 µM)	1 (≈ 1.83 µM)	
CC(C)C(CCC(C)C1CCC2C3C(O)CC4CC(NCCCNCCCCN)CCC4(C)C3CC(O)C12C)OS(=O)(=O)O (stereo not drawn) [Aminosterol (7)]	16 (≈ 24.8 µM)	16 (≈ 24.8 µM)	8 to 16	32 (≈ 49.7 µM)
CC(COS(=O)(=O)O)C(O)CCC(C)C1CCC2C3C(O)CC4CC(NCCCNCCCCNCCCN)CCC4(C)C3CCC12C (stereo not drawn) [Aminosterol (9)]	31 (≈ 44.2 µM)	31 (≈ 44.2 µM)	31 (≈ 44.2 µM)	
CC(COS(=O)(=O)O)C(O)CCC(C)C1CCC2C3C(O)CC4CC(NCCCNCCCCN)CCC4(C)C3CCC12C (stereo not drawn) [Aminosterol (4)]	128 (≈ 199 µM)	32 (≈ 49.7 µM)	4 to 8	16 (≈ 24.8 µM)
CC(CCC(=O)C(C)(C)O)C1CCC2C3C(O)CC4CC(NCCCNCCCCN)CCC4(C)C3CCC12C (stereo not drawn) [Aminosterol (2)]	125 (≈ 222 µM)	>250	31 (≈ 55.2 µM)	

From patent US6388108B1, “Aminosterol compounds and uses thereof” (Genaera Corporation, priority 1998, dated 2002)
